# Legend:
# Assay in all cases: relative viability (nuclei count vs DMSO), 5 days (fraction); higher = more cells survive
# Carboplatin + OSI-027 = compound: C1CC(C1)(C(=O)O)C(=O)O.[NH2-].[NH2-].[Pt+2] [Carboplatin] + COc1cccc2cc(-c3nc([C@H]4CC[C@H](C(=O)O)CC4)n4ncnc(N)c34)[nH]c12 [OSI-027] (partner 0.5 µM)
# Procedure, shortened: (§1)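 Values are medians from duplicate plates. Each reflects relative viability, defined as the nuclei count of treated wells over that of vehicle wells. Lung cancer cell lines in 1536-well plates were pin-tool dosed one day after seeding with one drug alone or with a fixed anchor-drug dose plus five library-drug doses (not always all listed) in √10 steps, then fixed, stained and imaged at 4× after 5 days.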
# Carboplatin + Dasatinib = compound: C1CC(C1)(C(=O)O)C(=O)O.[NH2-].[NH2-].[Pt+2] [Carboplatin] + Cc1nc(Nc2ncc(C(=O)Nc3c(C)cccc3Cl)s2)cc(N2CCN(CCO)CC2)n1 [Dasatinib] (partner 0.075 µM)
# Procedure, shortened: as §1
# GSK126 + Trametinib = compound: CC[C@H](C)N1C=C(C2=C(C=C(C=C21)C3=CN=C(C=C3)N4CCNCC4)C(=O)NCC5=C(C=C(NC5=O)C)C)C [GSK126] + CC(=O)Nc1cccc(-n2c(=O)n(C3CC3)c(=O)c3c(Nc4ccc(I)cc4F)n(C)c(=O)c(C)c32)c1 [Trametinib] (partner 0.02 µM)
# Procedure, shortened: as §1
# GSK126 + Phenformin = compound: CC[C@H](C)N1C=C(C2=C(C=C(C=C21)C3=CN=C(C=C3)N4CCNCC4)C(=O)NCC5=C(C=C(NC5=O)C)C)C [GSK126] + N=C(N)NC(=N)NCCc1ccccc1 [Phenformin] (partner 250 µM)
# Procedure, shortened: as §1
Cell Line,relative viability (Carboplatin + OSI-027; first compound 0.08 µM),relative viability (Carboplatin + OSI-027; first compound 0.253 µM),relative viability (Carboplatin + OSI-027; first compound 0.8 µM),relative viability (Carboplatin + OSI-027; first compound 2.53 µM),relative viability (Carboplatin + OSI-027; first compound 8 µM),relative viability (Carboplatin + Dasatinib; first compound 0.08 µM),relative viability (Carboplatin + Dasatinib; first compound 0.253 µM),relative viability (Carboplatin + Dasatinib; first compound 0.8 µM),relative viability (Carboplatin + Dasatinib; first compound 2.53 µM),relative viability (Carboplatin + Dasatinib; first compound 8 µM),relative viability (GSK126 + Trametinib; first compound 0.08 µM),relative viability (GSK126 + Trametinib; first compound 0.253 µM),relative viability (GSK126 + Trametinib; first compound 0.8 µM),relative viability (GSK126 + Trametinib; first compound 2.53 µM),relative viability (GSK126 + Trametinib; first compound 8 µM),relative viability (GSK126 + Phenformin; first compound 0.08 µM),relative viability (GSK126 + Phenformin; first compound 0.253 µM),relative viability (GSK126 + Phenformin; first compound 0.8 µM),relative viability (GSK126 + Phenformin; first compound 2.53 µM),relative viability (GSK126 + Phenformin; first compound 8 µM)
COR-L23,0.894,0.903,0.618,0.466,0.231,0.51,0.536,0.436,0.373,0.216,0.837,0.563,0.499,0.557,0.737,0.504,0.445,0.437,0.435,0.404
NCI-H2009,0.699,0.597,0.61,0.56,0.402,0.321,0.286,0.29,0.291,0.249,0.332,0.233,0.286,0.348,0.321,0.506,0.467,0.442,0.43,0.359
PC-3 [JPC-3],0.88,0.821,0.754,0.729,0.588,1,1.09,0.985,0.95,0.864,0.763,0.694,0.693,0.66,0.634,0.478,0.489,0.48,0.456,0.489
NCI-H2085,0.719,0.849,0.783,0.64,0.628,0.243,0.293,0.243,0.239,0.255,0.614,0.658,0.554,0.569,0.568,0.871,0.667,0.677,0.725,0.732
EKVX,0.739,0.736,,0.674,0.683,0.603,0.582,0.48,0.446,0.495,0.377,0.446,0.354,0.362,0.268,0.229,0.252,0.246,0.218,0.231
NCI-H1792,0.724,0.691,0.824,0.679,0.566,0.831,0.776,0.816,0.692,0.62,0.492,0.397,0.43,0.405,0.406,0.344,,0.262,0.255,0.228
NCI-H2405,0.683,0.624,0.624,0.642,0.56,0.234,0.206,0.214,0.191,0.215,0.817,0.587,0.611,0.614,0.636,0.394,0.384,0.365,0.328,0.304
201T,0.828,0.749,0.824,0.68,0.349,0.575,0.571,0.569,0.487,0.576,0.698,0.693,0.726,0.746,0.726,0.478,0.46,0.443,0.437,0.387
NCI-H1755,0.823,0.786,0.712,0.729,0.74,0.451,0.441,0.395,0.462,0.452,0.771,0.736,0.777,0.826,0.793,0.656,0.637,0.614,0.562,0.555
NCI-H647,0.724,0.637,0.692,0.57,0.575,0.196,0.18,0.216,0.164,0.161,0.55,0.461,0.381,0.44,0.413,0.595,0.45,0.448,0.344,0.508
NCI-H1651,0.734,0.662,0.706,0.506,0.487,0.436,0.397,0.344,0.435,0.216,0.794,0.86,0.811,0.844,0.866,0.369,0.268,0.354,0.313,0.364
NCI-H1437,0.935,0.822,0.83,0.749,0.488,0.619,0.411,0.428,0.411,0.325,0.507,0.528,0.494,0.459,0.501,0.298,0.362,0.269,0.319,0.311
NCI-H1975,0.901,0.823,0.713,0.762,0.754,0.433,0.374,0.358,0.366,0.375,0.377,0.31,0.362,0.369,0.352,0.465,0.412,0.392,0.422,0.405
BEN,0.295,0.304,0.266,0.287,0.292,0.339,0.296,0.284,0.319,0.228,1.05,0.736,1.02,1.26,0.953,0.268,0.243,0.234,0.232,0.217
NCI-H441,0.715,0.668,0.767,0.696,0.451,0.665,0.798,0.546,0.627,0.47,0.538,0.471,0.571,0.483,0.343,0.991,0.727,0.708,0.946,0.826
NCI-H2170,0.715,0.723,0.86,0.783,0.605,0.634,0.654,0.663,0.583,0.468,1.05,0.964,0.893,0.891,1.03,0.386,0.427,0.393,0.391,0.376

Cell Line,relative viability (Carboplatin + OSI-027; first compound 0.08 µM),relative viability (Carboplatin + OSI-027; first compound 0.253 µM),relative viability (Carboplatin + OSI-027; first compound 0.8 µM),relative viability (Carboplatin + OSI-027; first compound 2.53 µM),relative viability (Carboplatin + OSI-027; first compound 8 µM),relative viability (Carboplatin + Dasatinib; first compound 0.08 µM),relative viability (Carboplatin + Dasatinib; first compound 0.253 µM),relative viability (Carboplatin + Dasatinib; first compound 0.8 µM),relative viability (Carboplatin + Dasatinib; first compound 2.53 µM),relative viability (Carboplatin + Dasatinib; first compound 8 µM),relative viability (GSK126 + Trametinib; first compound 0.08 µM),relative viability (GSK126 + Trametinib; first compound 0.253 µM),relative viability (GSK126 + Trametinib; first compound 0.8 µM),relative viability (GSK126 + Trametinib; first compound 2.53 µM),relative viability (GSK126 + Trametinib; first compound 8 µM),relative viability (GSK126 + Phenformin; first compound 0.08 µM),relative viability (GSK126 + Phenformin; first compound 0.253 µM),relative viability (GSK126 + Phenformin; first compound 0.8 µM),relative viability (GSK126 + Phenformin; first compound 2.53 µM),relative viability (GSK126 + Phenformin; first compound 8 µM)
NCI-H3122,0.985,1.24,0.828,0.732,0.752,0.759,0.996,0.87,0.961,0.816,0.198,0.186,0.216,0.22,0.245,0.405,0.367,0.364,0.351,0.319
NCI-H1650,0.736,0.593,0.653,0.574,0.341,0.31,0.357,0.321,0.273,0.299,0.631,0.656,0.428,0.578,0.654,0.531,0.404,0.44,0.361,0.358
SW 900,0.726,0.533,0.49,0.465,0.412,0.837,0.616,0.442,0.409,0.467,0.801,0.507,0.86,0.901,0.615,0.637,0.479,0.721,0.502,0.576
NCI-H1355,0.476,0.375,0.413,0.377,0.415,0.729,0.759,0.776,0.667,0.656,0.435,0.412,0.4,0.421,0.468,0.524,0.448,0.434,0.454,0.391
NCI-H2342,0.785,0.731,0.717,0.534,0.608,0.328,0.344,0.311,0.28,0.294,0.786,0.739,0.815,0.869,0.984,0.942,0.566,0.558,0.525,0.759
NCI-H1734,0.707,0.674,0.63,0.528,0.572,0.471,0.449,0.454,0.463,0.443,0.801,0.63,0.662,0.731,0.766,0.474,0.361,0.393,0.382,0.418
LXF-289,0.882,0.871,0.816,0.828,0.716,0.327,0.24,0.223,0.264,0.232,0.66,0.665,0.7,0.611,0.693,0.549,0.509,0.477,0.487,0.483
RERF-LC-KJ,0.585,0.639,0.541,0.464,0.343,0.892,0.767,0.747,0.706,0.517,0.902,0.981,0.733,0.841,0.825,0.484,0.417,0.396,0.4,0.396
NCI-H2087,0.656,0.56,0.536,0.508,0.41,0.85,0.932,0.833,0.689,0.613,0.223,0.211,0.246,0.2,0.2,0.457,0.39,0.448,0.449,0.487
NCI-H1793,0.32,0.337,0.284,0.296,0.312,0.432,0.384,0.394,0.355,0.381,0.432,0.423,0.457,0.384,0.338,0.407,0.458,0.384,0.274,0.235
HCC-827,0.774,0.851,0.783,0.732,0.655,0.327,0.326,0.337,0.35,0.432,0.478,0.496,0.54,0.635,0.531,0.408,0.385,0.441,0.388,0.411
NCI-H1395,0.83,0.597,0.674,0.527,0.52,0.423,0.367,0.392,0.42,0.516,1.07,0.955,1.05,0.994,0.964,0.487,0.446,0.43,0.506,0.474
NCI-H23,0.843,0.599,0.671,0.575,0.435,0.918,0.854,0.673,0.534,0.663,0.434,0.378,0.407,0.551,0.391,0.843,0.792,0.738,0.761,0.77
HARA,0.619,0.644,0.476,0.462,0.385,0.205,0.252,0.209,0.213,0.302,0.755,0.771,0.587,0.613,0.621,0.607,0.434,0.476,0.367,0.38
HCC-366,1.07,0.979,0.911,0.955,0.486,0.609,0.619,0.624,0.594,0.403,0.391,0.357,0.343,0.309,0.337,0.687,0.641,0.574,0.644,0.543
NCI-H838,0.468,0.32,0.439,0.364,0.391,0.306,0.3,0.331,0.319,0.275,0.58,0.51,0.437,0.477,0.483,0.652,0.468,0.522,0.487,0.555

# Reference: the supplement of paper PMC10307832
